# In patent publication US7939540B2, “4-(3-benzoylaminophenyl)-6,7-dimethoxy-2-methylaminoquinazoline derivatives” (Eisai R&D Management Co., Ltd., priority 2006, dated 2011):
# Read-outs that look alike come from different tables or passages of the source.
# Columns and labels:
# CYPs = assay: Induction potency on CYPs in cryopreserved human hepatocytes, overall statement; assay type: in vitro ADME; settings: cryopreserved human hepatocytes, 1, 3 and 10 μM; result in words
# Protocol: The ability to induce CYP1A2 or CYP3A4 was calculated in the same manner described above.
# CYP1A2 = settings: human, hepatocytes
# Protocol: (§1) Cryopreserved human hepatocytes (XenoTeck) were rapidly thawed at 37° C., and viable cells were obtained using Hepatocytes Isolation Kit (Nosan Corporation). After cells prepared were diluted with ice cold William's Medium E (10% FBS, +PSG) to give a concentration of 5×10^5 viable cells/mL, the cells were seeded onto a 48-well collagen-coated plate (BD Biosciences) at a concentration of 1×10^5 cells/cm^2 and cultured at 37° C. in 5% CO2 for 24 hours. Then, the medium was replaced with Hepato-STIM (registered trade mark: BD Biosciences) (+EGF, PSG, −FBS), and the cells were further cultured at 37° C. in 5% CO2 for 24 hours. […] The culture medium containing test compound, β-NF or Rif was replaced every 24 hours. Test compound, β-NF and Rif were each dissolved in dimethyl sulfoxide (DMSO: Wako Pure Chemical Industries, Ltd.), and culture medium containing test compound (final concentrations; 1, 3 and 10 μM), β-NF (final concentration; 10 μM) or Rif (final concentration; 10 μM) was prepared by adding them to Hepato-STIM(+EGF, PSG, −FBS), respectively. Final concentration of DMSO was set to be 0.1%, and culture medium containing 0.1% DMSO was used for control. After completion of the treatment, the cells were washed with PBS once, and total RNA was purified using Total RNA Purification Kit (Applied Biosystems). The purified total RNA was subjected to reverse transcription reaction using TaqMan Reverse Transcription Reagents (Applied Biosystems) to synthesize cDNA, where oligo dT was used as a primer. The reaction was carried out using Gene Amp PCR system 9700 at 25° C. for 10 minutes, followed by at 48° C. for 60 minutes. Then, reverse transcriptase was deactivated at 95° C. for 10 minutes. The levels of mRNA for CYP1A1 and GAPDH were quantified using SYBR Green PCR Core Reagents Kit (Applied Biosystems), and those for CYP1A2 and that of CYP3A4 were measured using Taqman PCR Core Reagents Kit (Applied Biosystems) and ABI Prism 7900 Sequence Detection System (Applied Biosystems).
# (§2) * A cycle consisting of denaturation, annealing, and elongation reaction, was repeated 50 times.
# (§3) The ability of a test compound to induce CYP1A1 was calculated as follows: Ability of a test compound to induce CYP1A1 (%)={[(amount of mRNA of CYP1A1 in test compound treated cells)/(amount of mRNA of GAPDH in test compound treated cells)]/[(amount of mRNA of CYP1A1 in control cells)/(amount of mRNA of GAPDH in control cells)]−1}/{[(amount of mRNA of CYP1A1 in positive control treated cells)/(amount of mRNA of GAPDH in positive control treated cells)]/[(amount of mRNA of CYP1A1 in control cells)/(amount of mRNA of GAPDH in control cells)]−1}×100
# CYP1A1 = settings: human, hepatocytes
# Protocol: as §1, §2, §3
# CYP3A4 = assay: Induction potency of drug metabolizing enzyme (CYP) using cryopreserved human hepatocytes, CYP3A4 mRNA; settings: approximately 48 hours, mRNA normalised to GAPDH, positive control rifampicin 10 μM
# Protocol: as §1, §2, §3
Compound,induction potency on CYPs (CYPs),Induction Ability compared to positive control (%) CYP1A2 (CYP1A2; 1 μM) [%],Induction Ability compared to positive control (%) CYP1A2 (CYP1A2; 3 μM) [%],Induction Ability compared to positive control (%) CYP1A2 (CYP1A2; 10 μM) [%],Induction Ability compared to positive control (%) CYP1A1 (CYP1A1; 1 μM) [%],Induction Ability compared to positive control (%) CYP1A1 (CYP1A1; 3 μM) [%],Induction Ability compared to positive control (%) CYP1A1 (CYP1A1; 10 μM) [%],Induction Ability compared to positive control (%) CYP3A4 (CYP3A4; test compound 1 μM) [%],Induction Ability compared to positive control (%) CYP3A4 (CYP3A4; test compound 3 μM) [%],Induction Ability compared to positive control (%) CYP3A4 (CYP3A4; test compound 10 μM) [%]
"CNc1nc(-c2cccc(NC(=O)c3ccccc3)c2)c2cc(OC)c(OC)cc2n1 [Comparative example, 4-(3-benzoylaminophenyl)-6,7-dimethoxy-2-methylaminoquinalozine, reference compound]",induction potency on CYPs was observed,7.2,34.3,35.0,2.1,18.5,51.9,1.6,10.8,17.0
"CCOC(=O)c1ccc(C(=O)Nc2cccc(-c3nc(NC)nc4cc(OC)c(OC)cc34)c2)cc1 [Example 4, ethyl N-[3-(6,7-dimethoxy-2-methylaminoquinazolin-4-yl)phenyl]terephthalamic acid]",,−1.1,0.6,6.1,0.1,0.4,1.5,−5.6,−6.1,0.1
"CNC(=O)c1ccc(C(=O)Nc2cccc(-c3nc(NC)nc4cc(OC)c(OC)cc34)c2)cc1 [Example 5, N-[3-(6,7-dimethoxy-2-methylaminoquinazolin-4-yl)phenyl]-N′-methylterephthalamide]",,−2.0,−1.3,0.5,0.0,0.0,0.0,−6.9,−6.2,−2.0
"CNc1nc(-c2cccc(NC(=O)c3ccc(C(=O)OC(C)C)cc3)c2)c2cc(OC)c(OC)cc2n1 [Example 7, isopropyl N-[3-(6,7-dimethoxy-2-methylaminoquinazolin-4-yl)phenyl]terephthalamic acid]",,0.5,1.5,3.1,0.2,1.8,5.7,−6.6,−9.8,−11.9
"CCCOC(=O)c1cccc(C(=O)Nc2cccc(-c3nc(NC)nc4cc(OC)c(OC)cc34)c2)c1 [Example 14, propyl N-[3-(6,7-dimethoxy-2-methylaminoquinazolin-4-yl)phenyl]isophthalic acid]",,1.2,3.0,1.8,0.2,0.3,0.7,0.7,−0.1,−1.5
"CNC(=O)c1cccc(C(=O)Nc2cccc(-c3nc(NC)nc4cc(OC)c(OC)cc34)c2)c1 [Example 16, N-[3-(6,7-dimethoxy-2-methylaminoquinazolin-4-yl)phenyl]-N′-methylisophthalamide]",,0.2,3.9,1.2,0.0,0.3,1.0,−0.7,−0.3,2.7
"CNc1nc(-c2cccc(NC(=O)c3ccc(C(=O)OCCOC)cc3)c2)c2cc(OC)c(OC)cc2n1 [Example 20, N-[3-(6,7-dimethoxy-2-methylaminoquinazolin-4-yl)phenyl]terephthalamic acid 2-methoxyethyl ester]",,−1.7,−1.6,−1.2,0.1,0.1,0.8,−2.0,−2.1,−2.2
"CNc1nc(-c2cccc(NC(=O)c3cccc(C(=O)OCCOC)c3)c2)c2cc(OC)c(OC)cc2n1 [Example 21, N-[3-(6,7-dimethoxy-2-methylaminoquinazolin-4-yl)phenyl]isophthalamic acid 2-methoxyethyl ester]",,0.6,−0.3,0.4,0.0,0.0,0.1,−1.2,−1.6,−2.0
